Measured values taken from patent publication US10377718B2, “Apelin receptor (APJ) agonists and uses thereof” (Research Triangle Institute, priority 2014, dated 2019).
Each block holds one molecule with its values, some of them ahead of it.

Experiments:
apelin receptor (APJ) = biological target: T1, apelin receptor (APJ) (Homo sapiens, UniProt P35414); assay: in vitro apelin agonist activity (methods of Giddings et al., Apelin-13 as positive control); assay type: cell-based; conditions: apelin agonist activity, Giddings et al. method; read-out: agonist activity (EC50)
T1 sequence (P35414 1-380): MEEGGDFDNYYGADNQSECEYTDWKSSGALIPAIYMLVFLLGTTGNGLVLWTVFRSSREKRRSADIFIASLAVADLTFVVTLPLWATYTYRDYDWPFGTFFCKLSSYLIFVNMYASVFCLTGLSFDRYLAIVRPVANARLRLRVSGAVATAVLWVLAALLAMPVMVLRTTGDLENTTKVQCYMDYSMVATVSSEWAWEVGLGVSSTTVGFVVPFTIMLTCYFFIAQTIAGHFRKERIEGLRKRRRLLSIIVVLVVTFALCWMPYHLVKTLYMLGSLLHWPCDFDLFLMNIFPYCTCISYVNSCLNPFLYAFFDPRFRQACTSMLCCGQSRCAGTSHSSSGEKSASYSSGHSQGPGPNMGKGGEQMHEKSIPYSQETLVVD
Description: The compounds above were studied for their in vitro activity as apelin agonists using the methods described by Giddings et al. Giddings et al., 2010 Int J High Thro Screen. 1:39-47, the contents of which are hereby incorporated by reference in its entirety.

C57BL/6 mice = assay: in vivo blood pressure lowering activity, non-invasive blood pressure and heart rate after IP injection; design: Systolic Baseline / Diastolic Baseline: unit not given here; conditions: for Diastolic Baseline / HR Baseline / Mean pressure Baseline / Systolic Baseline: baseline before dosing; for Diastolic % change / HR % change / Mean pressure % change / Systolic % change: postdose vs baseline; for HR Postdose: in bpm (unit assumed); for Diastolic Postdose / Mean pressure Postdose / Systolic Postdose: in mmHg (unit assumed)
Description: The compounds were also assayed for blood pressure activity using C57BL/6 mice and the procedure described by Tatemoto et al. The novel peptide apelin lowers blood pressure via a nitric oxide-dependent mechanism. Regul Pept. 2001; 99: 87-92. […] Studies have been published citing reductions in blood pressure occur following peptide apelin administration. Apelin-13 was used as a positive control. Knockout C57BL/6 mice lacking APJ have cardiovascular deficiencies. […] Charo et al. Am J Physiol Heart Circ Physiol. 2009 November 297(5):[…] et al. J Physiol Biochem. 2007 December; 63(4):359-73. Blood pressure measurements in these species of mice have been reported in the literature. […] et al. Am J Physiol Heart Circ Physiol. 2003 February; 284(2):[…]-74. On the first day of the study, 11 animals were treated with apelin-13, 11 with vehicle alone, and 11 as sham controls. The two later groups were used to determine effects (if any) of the vehicle or injection alone on blood pressure (BP). The experiment was conducted as follows: The animals were restrained and a baseline measurement taken for 5 min. Animals were injected and immediately monitored for 15 minutes. The effect of test agents should be apparent within this time. Tatemoto et al. reported that the effects of Apelin-13 were apparent within minutes. Tatemoto et al. 2001 Immediately following dosing, blood pressure (diastolic, systolic and mean pressure) and heart rate for each animal was recorded for up to 15 minutes using a Kent Scientific CODA Non-Invasive Blood Pressure System. […] On day 2-5 a similar protocol was used in increasing doses. The animals were randomized daily in three groups of 11 to receive either of the two experimental compounds by IP injection. […] At the end of the 5-day dosing period, all animals were humanely euthanized. [table]

EC50 (apelin receptor (APJ)): < 10 µM
SMILES: COc1cccc(OC)c1-c1cc(C(=O)N[C@H](CC(=O)NC2CCC2)CC(C)C)nn1CC(C)C [compound 173]
Diastolic Baseline (C57BL/6 mice; Day 2, 1 mg/kg IP): 114
HR Baseline (C57BL/6 mice; Day 2, 1 mg/kg IP): 681
Mean pressure Baseline (C57BL/6 mice; Day 2, 1 mg/kg IP): 126
Systolic Baseline (C57BL/6 mice; Day 2, 1 mg/kg IP): 151
Diastolic % change (C57BL/6 mice; Day 2, 1 mg/kg IP): 3%
HR % change (C57BL/6 mice; Day 2, 1 mg/kg IP): 5%
Mean pressure % change (C57BL/6 mice; Day 2, 1 mg/kg IP): 1%
Systolic % change (C57BL/6 mice; Day 2, 1 mg/kg IP): −1%
HR Postdose (C57BL/6 mice; Day 2, 1 mg/kg IP): 716
Diastolic Postdose (C57BL/6 mice; Day 2, 1 mg/kg IP): 118
Mean pressure Postdose (C57BL/6 mice; Day 2, 1 mg/kg IP): 128
Systolic Postdose (C57BL/6 mice; Day 2, 1 mg/kg IP): 149
Diastolic Baseline (C57BL/6 mice; Day 3, 3 mg/kg IP): 127
HR Baseline (C57BL/6 mice; Day 3, 3 mg/kg IP): 661
Mean pressure Baseline (C57BL/6 mice; Day 3, 3 mg/kg IP): 136
Systolic Baseline (C57BL/6 mice; Day 3, 3 mg/kg IP): 156
Diastolic % change (C57BL/6 mice; Day 3, 3 mg/kg IP): 2%
HR % change (C57BL/6 mice; Day 3, 3 mg/kg IP): 12%
Mean pressure % change (C57BL/6 mice; Day 3, 3 mg/kg IP): 2%
Systolic % change (C57BL/6 mice; Day 3, 3 mg/kg IP): 2%
HR Postdose (C57BL/6 mice; Day 3, 3 mg/kg IP): 738
Diastolic Postdose (C57BL/6 mice; Day 3, 3 mg/kg IP): 129
Mean pressure Postdose (C57BL/6 mice; Day 3, 3 mg/kg IP): 139
Systolic Postdose (C57BL/6 mice; Day 3, 3 mg/kg IP): 159
Diastolic Baseline (C57BL/6 mice; Day 4, 10 mg/Kg IP): 114.9
HR Baseline (C57BL/6 mice; Day 4, 10 mg/Kg IP): 682.5
Mean pressure Baseline (C57BL/6 mice; Day 4, 10 mg/Kg IP): 126.3
Systolic Baseline (C57BL/6 mice; Day 4, 10 mg/Kg IP): 150.5
Diastolic % change (C57BL/6 mice; Day 4, 10 mg/Kg IP): 4%
HR % change (C57BL/6 mice; Day 4, 10 mg/Kg IP): 10%
Mean pressure % change (C57BL/6 mice; Day 4, 10 mg/Kg IP): 2%
Systolic % change (C57BL/6 mice; Day 4, 10 mg/Kg IP): 0%
HR Postdose (C57BL/6 mice; Day 4, 10 mg/Kg IP): 749.4
Diastolic Postdose (C57BL/6 mice; Day 4, 10 mg/Kg IP): 119.3
Mean pressure Postdose (C57BL/6 mice; Day 4, 10 mg/Kg IP): 129.2
Systolic Postdose (C57BL/6 mice; Day 4, 10 mg/Kg IP): 150
Diastolic Baseline (C57BL/6 mice; Day 5, 30 mg/Kg IP): 122.2
HR Baseline (C57BL/6 mice; Day 5, 30 mg/Kg IP): 701.1
Mean pressure Baseline (C57BL/6 mice; Day 5, 30 mg/Kg IP): 133
Systolic Baseline (C57BL/6 mice; Day 5, 30 mg/Kg IP): 155.7
Diastolic % change (C57BL/6 mice; Day 5, 30 mg/Kg IP): −4%
HR % change (C57BL/6 mice; Day 5, 30 mg/Kg IP): 3%
Mean pressure % change (C57BL/6 mice; Day 5, 30 mg/Kg IP): −4%
Systolic % change (C57BL/6 mice; Day 5, 30 mg/Kg IP): −5%
HR Postdose (C57BL/6 mice; Day 5, 30 mg/Kg IP): 721.7
Diastolic Postdose (C57BL/6 mice; Day 5, 30 mg/Kg IP): 117.5
Mean pressure Postdose (C57BL/6 mice; Day 5, 30 mg/Kg IP): 127.4
Systolic Postdose (C57BL/6 mice; Day 5, 30 mg/Kg IP): 148.2

EC50 (apelin receptor (APJ)): < 10 µM
SMILES: CCCCNC(=O)C[C@H](CC(C)C)NC(=O)c1cc(-c2c(OC)cccc2OC)n(CC(C)C)n1 [compound 143, (S)-N-(1-(Butylamino)-5-methyl-1-oxohexan-3-yl)-5-(2,6-dimethoxyphenyl)-1-isobutyl-1H-pyrazole-3-carboxamide]
Diastolic Baseline (C57BL/6 mice; Day 2, 1 mg/kg IP): 127
HR Baseline (C57BL/6 mice; Day 2, 1 mg/kg IP): 706
Mean pressure Baseline (C57BL/6 mice; Day 2, 1 mg/kg IP): 138
Systolic Baseline (C57BL/6 mice; Day 2, 1 mg/kg IP): 161
Diastolic % change (C57BL/6 mice; Day 2, 1 mg/kg IP): 1%
HR % change (C57BL/6 mice; Day 2, 1 mg/kg IP): 3%
Mean pressure % change (C57BL/6 mice; Day 2, 1 mg/kg IP): 0%
Systolic % change (C57BL/6 mice; Day 2, 1 mg/kg IP): −1%
HR Postdose (C57BL/6 mice; Day 2, 1 mg/kg IP): 727
Diastolic Postdose (C57BL/6 mice; Day 2, 1 mg/kg IP): 129
Mean pressure Postdose (C57BL/6 mice; Day 2, 1 mg/kg IP): 139
Systolic Postdose (C57BL/6 mice; Day 2, 1 mg/kg IP): 160
Diastolic Baseline (C57BL/6 mice; Day 3, 3 mg/kg IP): 132
HR Baseline (C57BL/6 mice; Day 3, 3 mg/kg IP): 665
Mean pressure Baseline (C57BL/6 mice; Day 3, 3 mg/kg IP): 142
Systolic Baseline (C57BL/6 mice; Day 3, 3 mg/kg IP): 163
Diastolic % change (C57BL/6 mice; Day 3, 3 mg/kg IP): −4%
HR % change (C57BL/6 mice; Day 3, 3 mg/kg IP): 15%
Mean pressure % change (C57BL/6 mice; Day 3, 3 mg/kg IP): −4%
Systolic % change (C57BL/6 mice; Day 3, 3 mg/kg IP): −3%
HR Postdose (C57BL/6 mice; Day 3, 3 mg/kg IP): 763
Diastolic Postdose (C57BL/6 mice; Day 3, 3 mg/kg IP): 127
Mean pressure Postdose (C57BL/6 mice; Day 3, 3 mg/kg IP): 137
Systolic Postdose (C57BL/6 mice; Day 3, 3 mg/kg IP): 158
Diastolic Baseline (C57BL/6 mice; Day 4, 10 mg/Kg IP): 131.3
HR Baseline (C57BL/6 mice; Day 4, 10 mg/Kg IP): 669.3
Mean pressure Baseline (C57BL/6 mice; Day 4, 10 mg/Kg IP): 143
Systolic Baseline (C57BL/6 mice; Day 4, 10 mg/Kg IP): 167.5
Diastolic % change (C57BL/6 mice; Day 4, 10 mg/Kg IP): −5%
HR % change (C57BL/6 mice; Day 4, 10 mg/Kg IP): 11%
Mean pressure % change (C57BL/6 mice; Day 4, 10 mg/Kg IP): −6%
Systolic % change (C57BL/6 mice; Day 4, 10 mg/Kg IP): −6%
HR Postdose (C57BL/6 mice; Day 4, 10 mg/Kg IP): 745
Diastolic Postdose (C57BL/6 mice; Day 4, 10 mg/Kg IP): 124.2
Mean pressure Postdose (C57BL/6 mice; Day 4, 10 mg/Kg IP): 134.8
Systolic Postdose (C57BL/6 mice; Day 4, 10 mg/Kg IP): 157.1
Diastolic Baseline (C57BL/6 mice; Day 5, 30 mg/Kg IP): 130
HR Baseline (C57BL/6 mice; Day 5, 30 mg/Kg IP): 733.9
Mean pressure Baseline (C57BL/6 mice; Day 5, 30 mg/Kg IP): 141
Systolic Baseline (C57BL/6 mice; Day 5, 30 mg/Kg IP): 164.1
Diastolic % change (C57BL/6 mice; Day 5, 30 mg/Kg IP): −9%
HR % change (C57BL/6 mice; Day 5, 30 mg/Kg IP): −2%
Mean pressure % change (C57BL/6 mice; Day 5, 30 mg/Kg IP): −9%
Systolic % change (C57BL/6 mice; Day 5, 30 mg/Kg IP): −8%
HR Postdose (C57BL/6 mice; Day 5, 30 mg/Kg IP): 722.8
Diastolic Postdose (C57BL/6 mice; Day 5, 30 mg/Kg IP): 118.8
Mean pressure Postdose (C57BL/6 mice; Day 5, 30 mg/Kg IP): 128.9
Systolic Postdose (C57BL/6 mice; Day 5, 30 mg/Kg IP): 150.2
